Key:
[1] = tested on: adult patients with highly active, non-cirrhotic NASH; test: NATIVE phase 2b trial, histological response on liver biopsy after 24 weeks of lanifibranor; assay type: in vivo, human
Excerpt: Patients were eligible for inclusion if they were 18 years of age or older and had non-cirrhotic NASH (the diagnosis of which required a Steatosis, Activity, Fibrosis [SAF] grade of 1 or higher for steatosis, hepatocellular ballooning and lobular inflammation on liver biopsy). A score of 3 or higher on the SAF-A (the activity part of the SAF scoring system that incorporates the scores for hepatocellular ballooning and lobular inflammation) was also a criterion for eligibility. Patients with stage F4 fibrosis, classified according to the criteria of both the SAF and NASH Clinical Research Network (NASH CRN) were excluded from the study. Patients were randomly assigned in a 1:1:1 ratio to receive 800 or 1200 mg lanifibranor or placebo once daily for 24 weeks. Liver biopsy was obtained at baseline and at the end of treatment. The primary end point of the NATIVE study was defined as a decrease of at least 2 points from baseline to Week 24 (end of treatment) in the SAF-A score and no worsening of fibrosis. Secondary histologic end points included resolution of NASH (defined as a ballooning grade of 0 and a lobular inflammation grade of ≤1) and no worsening of fibrosis; improvement in fibrosis of at least 1 stage and no worsening of NASH (i.e., no worsening in either steatosis, ballooning, or lobular inflammation); Nonalcoholic Fatty Liver Disease Activity Score (NAS) improvement (defined as a decrease of >2 points from baseline to week 24 in the NAS) and no worsening of fibrosis; resolution of NASH and an improvement in fibrosis stage of at least 1 (as a composite end point); change in scores for the components of the SAF and NASH CRN scoring system (steatosis, activity, inflammation, ballooning, and fibrosis); and change in the modified Ishak score. Non-histologic secondary endpoints included changes in a panel of serum biomarkers related to metabolism, inflammation tissue injury and fibrosis. Patients receiving lanifibranor 800 or 1200 mg per day were pooled and those with pre- and post-treatment liver biopsies were selected (n=142). Post-treatment biopsies were considered if they occurred within 14 days following last lanifibranor intake. The following histological endpoint according to NASH-CRN criteria was considered: NASH resolution and fibrosis improvement of at least 1 stage (E1). In the NATIVE trial, from February 2017 through July 2019, 247 patients were randomly assigned to receive 1200 mg of lanifibranor (N=83), 800 mg of lanifibranor (N=83), or placebo (N=81) orally once daily for 6 months. A total of 228 patients completed the trial, 77 in each lanifibranor group and 74 in the placebo group. Reasons for discontinuation of the trial regimen have been reported elsewhere. Finally, among the 154 patients treated with lanifibranor at both doses, 142 patients (N=70 and N=72 patients treated with 800 or 1200 mg per day, respectively) presented with pre- and post-treatment liver biopsies within the time frame required for the present work and were included in the analysis population for signature development.

[2] = tested on: adult patients with highly active, non-cirrhotic NASH; details: cited from earlier work

With `O=C(O)CCCc1cc2cc(Cl)ccc2n1S(=O)(=O)c1ccc2ncsc2c1` [lanifibranor, 4-[1-(1,3-benzothiazol-6-ylsulfonyl)-5-chloroindol-2-yl] butanoic acid] the “Resolution of NASH and improvement of liver fibrosis ≥1 Stage (E1), number of patients reaching endpoint” value (shortened to “Resolution … of patients reaching endpoint”) ([1]; 800 mg once daily, N=70) was 17 patients, the “Resolution of NASH and improvement of liver fibrosis ≥1 Stage (E1), patients reaching endpoint” value (“Resolution … (E1), patients reaching endpoint” below) ([1]; 800 mg once daily, N=70) was 24% and the “Resolution … of patients reaching endpoint” value ([1]; 1200 mg once daily, N=72) was 25 patients. For the same molecule, the “Resolution … (E1), patients reaching endpoint” value ([1]; 1200 mg once daily, N=72) was 35%, the “Resolution … of patients reaching endpoint” value ([1]; pooled lanifibranor group (800 or 1200 mg once daily), N=142) was 42 patients and the “Resolution … (E1), patients reaching endpoint” value ([1]; pooled lanifibranor group (800 or 1200 mg once daily), N=142 with pre- and post-treatment biopsies) was 30%. The “Percentage of patients with a decrease of at least 2 points in SAF-A score without worsening of fibrosis, compared to placebo” value ([2]; daily dose of 1200 mg, versus placebo) was “significantly higher” and the “Secondary endpoints (NASH resolution and fibrosis improvement, NASH resolution without worsening of fibrosis, improvement of fibrosis without worsening of NASH), compared to placebo” value ([2]; lanifibranor groups versus placebo, NASH-CRN) was “more favorable than placebo”.
